Assay results taken from ChEMBL document CHEMBL3826975, “New indolizine-chalcones as potent inhibitors of human farnesyltransferase: Design, synthesis and biological evaluation” (Bioorg Med Chem Lett, 2016).

Experiments:
[1] = biological target: T1, Protein farnesyltransferase (Homo sapiens, UniProt P49354+P49356); experiment: Inhibition of human recombinant farnesyltransferase using farnesylpyrophosphate and dansyl-GCVLS as substrate measured for 15 mins by fluorescence assay; assay type: protein-complex assay
[2] = biological target: T1, Protein farnesyltransferase; experiment: Inhibition of human recombinant farnesyltransferase using farnesylpyrophosphate and dansyl-GCVLS as substrate at 100 uM measured for 15 mins by fluorescence assay; assay type: protein-complex assay

IC50 [1] [nM] | inhibition [2] [%] | Structure (SMILES)
726 | 88 | COc1cc(/C=C/C(=O)c2ccc3c(C)cc(C)cn23)cc(OC)c1OC
931 | 85 | CCOC(=O)c1cc(C(=O)/C=C/c2ccc(Cl)cc2)n2ccc(OC)cc12
2330 | 88 | COc1ccn2c(C(=O)/C=C/c3ccc(Cl)cc3)cc(C(=O)O)c2c1
602 | 100 | CCOC(=O)c1cc(C(=O)/C=C/c2ccc(Br)cc2)n2ccc(OC)cc12
15900 | 88 | COc1cc(/C=C/C(=O)c2cc(C(=O)O)c3c(C)cc(C)cn23)cc(OC)c1OC
9 | 85 | CCOC(=O)c1cc(C(=O)/C=C/c2ccc3c(c2)Sc2ccccc2N3C)n2ccccc12
– | 7 | CCOC(=O)c1cc(C(=O)/C=C/c2cc(OC)c(OC)c(OC)c2)n2c(C)cccc12
155 | 98 | CCOC(=O)c1cc(C(=O)/C=C/c2ccc3c(c2)Sc2ccccc2N3C)n2ccc(C)cc12
1320 | 95 | CCOC(=O)c1cc(C(=O)/C=C/c2ccc(-c3ccccc3)cc2)n2ccc(OC)cc12
– | 100 | CSCC[C@H](NC(=O)c1ccc(NC[C@@H](N)CS)cc1-c1ccccc1)C(=O)O
8740 | 95 | CCOC(=O)c1cc(C(=O)/C=C/c2ccc(C#N)cc2)n2ccc(OC)cc12
11600 | 76 | CCOC(=O)c1cc(C(=O)/C=C/c2cc(OC)c(OC)c(OC)c2)n2ccc(OC)cc12
19300 | 94 | CCOC(=O)c1cc(C(=O)/C=C/c2cc(OC)c(OC)c(OC)c2)n2ccccc12
– | 68 | CCOC(=O)c1cc(C(=O)/C=C/c2ccc(OC)cc2)n2ccc(OC)cc12
23 | 91 | CCOC(=O)c1cc(C(=O)/C=C/c2ccc3c(c2)Sc2ccccc2N3C)n2c(C)cccc12
711 | 84 | CCOC(=O)c1cc(C(=O)/C=C/c2ccc3c(c2)Sc2ccccc2N3C)n2ccc(OC)cc12
